# Measured values from patent publication US11957646B2, “Methods and compositions of stable phenylephrine formulations” (Paragon BioTeck, Inc., priority 2013, dated 2024).
# Key:
# [1] = system: vasopressor effect of (−)-epinephrine, (−)-norepinephrine, and tetraethylammonium; conditions: anesthetized rats, infusion of large amount; cited from earlier work
# [2] = Chiral purity by chiral HPLC before and after 6 months storage at 2 to 8° C.; format: physicochemical; conditions: 10% solution
# Procedure: Column-OJ-RH (150×4.6) mm, Flow: 0.6 ml min-1, Mobile Phase: 0.05% Ethylenediamine in Methanol, Column Temp: 25° C.; Detection wavelength: 270 nm. 4.0 mg sample in 1 mL ethanol was analyzed. The injection volume to HPLC is 3.0 μL.
# R-Phenylephrine Hydrochloride Opthalmic Solution, 2.5% and 10% prepared as in Example 1 were stored at 2 to 8° C. The chiral purity of Sample 1 (10% solution) was assessed before low temperature stability test.
# The chiral purity of R-Phenylephrine Hydrochloride was determined by the method and conditions as shown in Example 3.
# rabbit pupil = test: Dilation assay of R and S form phenylephrine solutions on rabbits; format: in vivo, NZW rabbits; conditions: 10% solution, 3 drops, versus untreated eye
# Procedure: Two ophthalmic formulations, formulated 10% Phenylephrine hydrochloride (S-isomer) and the exemplary invention composition, 10% Phenylephrine hydrochloride (R-isomer) were tested for their ocular activity in NZW rabbits.
# Both R and S form solutions (10% solution prepared as in Example 1) were test for dilation on rabbits. The first test rabbit received 3 drops of the S form formulation and the second test rabbit received 3 drops of the R form solution.
Structure (SMILES),tachyphylaxis to vasopressor effect [1],other results
"CNCC(O)c1ccc(O)c(O)c1 (single isomer, unassigned; (+)) [(+)-epinephrine]",induces tachyphylaxis,
"NCC(O)c1ccc(O)c(O)c1 (single isomer, unassigned; (+)) [(+)-norepinephrine]",induces tachyphylaxis,
CNC[C@H](O)c1cccc(O)c1 [(−)-phenylephrine],induces tachyphylaxis,
"CNC[C@H](O)c1cccc(O)c1.Cl [R-Phenylephrine Hydrochloride, (R)-3-hydroxy-α-[(methylamino)methyl]benzenemethanol hydrochloride]",,chiral purity before storage ([2]; before low temperature stability test): 99.3 % ee; chiral purity after 6 months storage ([2]; stored at 2 to 8° C. for 6 months): 99.3 % ee
CNC[C@@H](O)c1cccc(O)c1 [S-Phenylephrine],induces tachyphylaxis,pupil dilation (rabbit pupil): dilated the eye only slightly more than that was untreated
CNCCc1ccc(O)c(O)c1 [epinine],induces tachyphylaxis,
